Key:
Format in all cases: cell-based
A375 cells [1] = assay: Cell cycle analysis (PI staining, Muse); conditions: 5 h
Description: For cell cycle analysis, A375 cells were initially plated in 6-well plates at a density of 1×10^5 cells per well and allowed to culture for 24 hours. Following this incubation period, the culture medium was replaced with fresh medium containing 16b and 29 at final concentrations of 1, 5, and 10 µM, after which the cells were incubated for an additional 5 hours. For control purposes, cells cultured in a medium containing 0.2% DMSO without treatment were utilized. The experimental procedure involved several steps: initially, the cells were rinsed with PBS, and then collected via trypsinization. The resulting cell pellet underwent another PBS wash before being fixed with 70% cold ethanol (Chempur, Piekary Śląskie, Polska) at -20°C for at least 3 hours. Before analysis, the ethanol-fixed cells were centrifuged, washed again with PBS, and then treated with Muse Cell Cycle Reagent (Luminex Corporation, Austin, TX, USA), which includes propidium iodide (PI) and RNAse. This staining process was carried out for 30 minutes at room temperature in the absence of light. The assay relies on PI-based staining of DNA content to differentiate and quantify the percentage of cells in the G0/G1, S, and G2/M phases of the cell cycle. The analysis was performed using the Muse Cell Analyzer (Luminex Corporation, Austin, TX, USA). The obtained findings were derived from a minimum of three independent experiments.

[2] = test system: human dermal fibroblasts (HDF); assay: WST-1 assay on non-tumor cells (selectivity)
Text: The A375 malignant melanoma cell line (ECACC 88113005, Salisbury, UK) was procured from the European Collection of Authenticated Cell Cultures (ECACC). The primary culture of human dermal fibroblasts (HDF) was derived from skin according to the protocol approved by the Ethical Committee of Pomeranian Medical University in Szczecin (KB-0012/02/18). The detailed protocol of fibroblast isolation, authentication, and cell culture conditions was previously described. Both cell lines were cultivated in a humidified incubator under conditions of 5% CO2 and a temperature of 37°C, using Dulbecco’s modified Eagle’s medium (DMEM) with 4500 mg/L glucose (Sigma-Aldrich Merck Group, St. Louis, MO, USA) enriched with 10% heat-inactivated fetal bovine serum (FBS, EURx, Gdańsk, Poland), 2 mM L-glutamine (Sigma-Aldrich Merck Group, St. Louis, MO, USA), and penicillin-streptomycin solution (Sigma-Aldrich Merck Group, St. Louis, MO, USA). Regular assessments for the presence of mycoplasma were conducted using the MycoAlert® Mycoplasma Detection Kit (Lonza, Rockland, ME, USA).
The evaluation of the antiproliferative activity of the compounds was performed using the Cell Proliferation Reagent WST-1 assay (Roche, Germany). This assay relies on the reduction of tetrazolium salt to formazan, with the final amount of formazan proportional to the number of viable cells. In our study, A375 cells (2×10^3) and HDF (3×10^3) were initially seeded into 96-well plates and cultured in a humidified atmosphere of 5% CO2 at 37°C. 24 hours later, the culture medium was replaced with a medium containing the tested compounds for a 48-hour incubation period at specified final concentrations. […] For control purposes, cells without the tested compounds, which contained only the vehicle (DMSO), were used. Additionally, a blank sample consisting of tested compounds in a medium (without cells) was included. After the 48-hour incubation period, the WST-1 reagent was introduced and allowed to incubate with the cells for 30 minutes. The absorbance was subsequently measured at 450 nm with background correction at 620 nm using a microplate reader (Infinite 200 Pro, Tecan, Männedorf, Switzerland). Cell viability was calculated according to the following formula: [(Atest–Ablank)/ (Acontrol − Ablank)] × 100%. These measurements were conducted in triplicate for at least three independent experiments.
For that purpose, non-tumor HDF cells were used and the concentrations of tested compounds were increased to 200 µM (0.4% DMSO) and 500 µM (1% DMSO). Appropriate controls were prepared for higher concentrations of DMSO.

A375 cells [3] = assay: Annexin V-PE/7-AAD apoptosis assay (Muse); conditions: 48 h, early and late apoptotic
Description: In this study, A375 cells were initially seeded into 24-well plates at a density of 1×10^4 cells per well. After 24 hours, the cell culture medium was carefully removed, and a new medium containing 16b and 29 at varying final concentrations (1, 5, and 10 µM) was added, followed by an additional 48-hour incubation. Cells in a medium containing 0.2% DMSO served as the control group. After the treatment period, cells were washed with phosphate-buffered saline (PBS), and both the cell medium and PBS wash were retained. The cells were then detached using trypsin and centrifuged. The resulting cell pellet was suspended in a fresh medium after discarding the supernatant. An equivalent volume of Muse Annexin V & Dead Cell Reagent (Luminex Corporation, Austin, TX, USA) was added and thoroughly mixed through repeated pipetting. The staining procedure was conducted for 20 minutes at room temperature in the absence of light. The Muse Cell Analyzer (Luminex Corporation, Austin, TX, USA) was utilized for analysis. This assay detects phosphatidylserine (PS) on apoptotic cell surfaces using annexin V-PE (phycoerythrin) binding. A 7-AAD (7-aminoactinomycin D) marker was used to assess cell membrane integrity. The dual staining approach enabled the identification of four distinct cell groups: viable (Annexin V-PE− and 7-AAD−), early apoptotic (Annexin V-PE+ and 7-AAD−), late apoptotic/dead (Annexin V-PE+ and 7-AAD+), and primarily nuclear debris (Annexin V-PE− and 7-AAD+). The findings were based on at least three separate experimental runs.

A375 cells [4] = assay: Live-cell imaging (time-lapse microscopy); conditions: 48 h
Description: For live-cell imaging, A375 cells were seeded into 96-well plates at a density of 2×10^3 cells per well and allowed to grow for 24 h before imaging. Next, the cell culture medium was carefully removed, and new medium containing 16b (at 2 µM and 10 µM) and 29 (at 5 µM and 10 µM) was added and the cell culture plate was placed in the imaging chamber of Agilent BioTek Lionheart FX automated microscope (Agilent Technologies, Inc., Santa Clara, CA, USA) equipped with a Plan Fluorite 20x/0.75 objective (Olympus, Nishi-Shinjuki, Tokyo, Japan), and a FLIR Blackfly BFLY-U3-23S6M camera (Teledyne FLIR, Wilsonville, OR, USA). The temperature in the imaging chamber was set to 37°C and CO2 level to 5%. The bright-field images were acquired every 5 minutes for 48 hours.

With `COc1cc(Cn2cc(-c3cccs3)ccc2=S)cc(OC)c1OC` [Compound 16b] the “percentage of A375 cells in the G2/M phase” value (“percentage of A375 cells” for short) (A375 cells [1]; 1 µM) was 33.79 ± 0.46%, the “percentage of A375 cells” value (A375 cells [1]; 5 µM) was 39.33 ± 5.27% and the “percentage of A375 cells” value (A375 cells [1]; 10 µM) was 44.52 ± 4.00%. For the same compound, the IC50 ([2]; Fibroblast, 48 hours of treatment, normal human dermal fibroblasts) was 120 ± 8.42 µM, the “Selectivity index (SI)” value ([2]; IC50 normal cells (HDF)/IC50 cancer cell (A375)) was 65.08 and the “percentage of annexin-positive cells” value (A375 cells [3]; 5 µM) was 18.43 ± 2.90%. For the same compound, the “percentage of annexin-positive cells” value (A375 cells [3]; 10 µM) was 30.50 ± 1.27%, the “time-lapse observation of A375 cells” value (A375 cells [4]; 2 µM) was “cells also divided, but less effectively, divisions lasted longer, and finally, the confluence was lower than that in the control well” and the “time-lapse observation of A375 cells” value (A375 cells [4]; 10 µM) was “arrested mitosis resulted in mitotic slippage, leading to apoptosis or formation of binucleated cells”.

Reference: paper PMC13223435, “Synthesis and Antiproliferative Activity against Melanoma Cells of New Heterocyclic Hybrids Based on Pyridine and Pyrimidine Scaffolds” (Current Medicinal Chemistry, 2025)
